{"source": "patent US20080107625A1", "about": "“Inhibitors of Hepatitis C Virus” (Bristol-Myers Squibb Company, priority 2006, published 2008)", "data": [{"smiles": "CC(C)(C)OC(=O)N[C@H]1CCCOC/C=C\\[C@@H]2C[C@@]2(C(=O)NS(=O)(=O)C2CC2)NC(=O)[C@@H]2C[C@@H](OCc3ccccc3)CN2C1=O", "note": "[Compound 5, (1S,4R,6S,14S,18R,7-cis)-18-benzyloxy-14-tert-butoxycarbonylamino-4-cyclopropanesulfonylaminocarbonyl-2,15-dioxo-3,16-diaza-10-oxatricyclo[14.3.0.04,6]nonadec-7-ene]", "values": [{"measurement": "melting point", "value": "147 to 149", "unit": "°C"}]}]}
